{
  "source": "paper PMC3321104",
  "about": "(Bioorganic & medicinal chemistry letters, 2012)",
  "key": {"[1]": {"tested_on": "chloroquine-resistant P. falciparum strain W2"}, "Vero cell": {"tested_on": "Vero cell", "assay": "Vero cell toxicity", "format": "cell-based", "details": "concentrations up to 25 μM"}, "[2]": {"tested_on": "chloroquine-resistant P. falciparum strain W2", "assay": "microbe, parasite or virus in culture", "details": "Plasmodium falciparum"}},
  "note": "Like-named read-outs stand apart in the source and are kept apart here.",
  "data": [
    {"compound": "CC1=C(CCCCC[P+](c2ccccc2)(c2ccccc2)c2ccccc2)C(=O)c2ccccc2C1=O", "note": "[9n]", "values": [
      {"measurement": "fold greater activity than control 4a", "setting": "[1]", "value": "3–7 fold"}
    ]},
    {"compound": "CC1=C(CCCC[P+](c2ccccc2)(c2ccccc2)c2ccccc2)C(=O)c2ccccc2C1=O", "note": "[9o, (4-(3-methyl-1,4-dioxo-1,4-dihydronaphthalen-2-yl)butyl)triphenyl-phosphonium methanesulfonate]", "values": [
      {"measurement": "Vero cell toxicity (in words)", "setting": "Vero cell", "value": "not displaying toxicity at 25 μM"}
    ]},
    {"compound": "O=C(Cn1ccnc1[N+](=O)[O-])NCc1ccccc1", "note": "[BNZ, benznidazole]", "values": [
      {"measurement": "Vero cell toxicity (in words)", "setting": "Vero cell", "value": "non-toxic"}
    ]},
    {"compound": "CCN(CC)CCCC(C)Nc1ccnc2cc(Cl)ccc12", "note": "(centres unmarked) [CQ, chloroquine]", "values": [
      {"measurement": "IC50", "setting": "[2]; W2, read-out: IC50 (nM), P. falciparum growth", "value": "66.9 ± 2.3", "unit": "nM"},
      {"measurement": "IC50", "setting": "[2]; W2, read-out: IC50, P. falciparum W2", "value": 66.9, "unit": "nM"}
    ]}
  ]
}
